In patent US10774051B2, “6-membered heterocyclic derivatives and pharmaceutical composition comprising the same” (Shionogi & Co., Ltd., priority 2015, dated 2020):
Where two headings read alike, the source gives them in different places.

Target: human P2X7 receptor (Homo sapiens, UniProt Q99572, R270H/Y155H)
Experiment: Evaluation of human P2X7 receptor inhibitory activity (Yo-Pro uptake, BzATP stimulation, FLIPR TETRA)
Assay type: cell-based
Procedure, shortened: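 Yo-Pro dye uptake triggered by BzATP was monitored by FLIPR in human P2X7-transfected 1321N1 cells (SNP variant) in HEPES-buffered HBSS, pH 7.4-7.5. Compound was dispensed 8 min post-stimulation, then signal read for 20 min; IC50 derived logistically from inhibition of the fluorescence range.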

[1] = 1321N1 cells stably expressing human P2X7 receptor, BzATP stimulation, Yo-Pro uptake, read-out: IC50 (antagonistic activity for the human P2X7 receptor)
[2] = antagonistic activity for the human P2X7 receptor, read-out: IC50
[3] = 1321N1 cells stably expressing human P2X7 receptor, BzATP stimulation, Yo-Pro uptake, read-out: IC50 (antagonistic activity for the human P2X7 receptor), class symbol

Row | Compound | IC50 [2] [nM] | IC50 [3] [nM] | further results
1 | CCc1cc2c(cc1Nc1nc(=O)c(OC)cn1Cc1ccc(F)c(Cl)c1)CCC2 [Compound I-0242] | – | – | IC50 [1]: 12 nM
2 | CCc1ccc(OC)cc1Nc1nc(=O)c(OC)cn1Cc1cc(F)c(F)c(F)c1 [Compound I-0673] | < 10 | – | –
3 | COc1cn(Cc2cc(F)cc(F)c2)c(Nc2cc(C(C)(C)O)ccc2C)nc1=O [Compound I-0785] | 10 to 100 | – | –
4 | Cc1ccc(OCCO)cc1Nc1nc(=O)c(C)cn1Cc1cc(F)c(F)c(F)c1 [Compound I-1145] | 10 to 100 | – | –
5 | COc1cc(C)cc(Nc2nc(=O)c(OC)cn2Cc2cc(F)cc(Cl)c2)c1C [Compound I-0395] | – | < 10 | –
6 | COc1cn(Cc2ccc(F)c(Cl)c2)c(Nc2cc(C)cc(C)c2C)nc1=O [Compound I-0502] | – | 10 to 100 | –
7 | COc1cn(Cc2ccc(F)c(Cl)c2)c(Nc2cc(-c3ncco3)ccc2C)nc1=O [Compound I-0549] | – | < 10 | –
8 | COc1cn(Cc2ccccc2)c(Nc2cccc3occc23)nc1=O [Compound I-0103] | – | 100 to 500 | –
9 | COc1ccc(Nc2nc(=O)cnn2Cc2ccc(F)c(Cl)c2)c(C)c1 [Compound I-1270] | < 10 | – | –
10 | COc1cn(Cc2cccc(F)c2)c(Nc2cc(C)c(Cl)cc2C)nc1=O [Compound I-0168] | – | < 10 | –
11 | COc1cc(C)c(Nc2nc(=O)c(OC)cn2Cc2cccc(Cl)c2)cc1OC [Compound I-0208] | – | < 10 | –
12 | COC(=O)/C=C/c1ccc(C)c(Nc2nc(=O)c(OC)cn2Cc2cc(F)c(F)c(F)c2)c1 [Compound I-1079] | 10 to 100 | – | –
13 | COc1cn(Cc2ccc(F)c(F)c2)c(Nc2cc(Cl)cc3[nH]ccc23)nc1=O [Compound I-0820] | 10 to 100 | – | –
14 | CCOc1ccc(Nc2nc(=O)c(OC)cn2Cc2cc(F)c(F)c(F)c2)c(C)c1 [Compound I-0725] | < 10 | – | –
15 | COc1cc(Nc2nc(=O)c(F)cn2Cc2cc(F)cc(F)c2)c(C)nc1F [Compound I-1118] | 100 to 500 | – | –
16 | Cc1nc2cc(C)c(Nc3nc(=NC#N)c(F)cn3Cc3cc(F)c(F)c(F)c3)cc2s1 [Compound I-1286] | < 10 | – | –
17 | COc1cn(Cc2ccccc2)c(Nc2cc(-c3ccccc3)ccc2C)nc1=O [Compound I-0827] | 10 to 100 | – | –
18 | COc1ccc(C)c(Nc2nc(=O)c(C(=O)O)cn2Cc2cc(F)c(F)c(F)c2)c1 [Compound I-1128] | 10 to 100 | – | –
19 | Cc1cc(Nc2nc(=O)c(F)cn2Cc2cc(F)c(F)c(F)c2)c(C)cc1F [Compound I-1227] | < 10 | – | –
20 | COc1cn(Cc2ccc(Cl)cc2)c(Nc2cc(C)c(C)cc2C)nc1=O [Compound I-0193] | – | – | IC50 [1]: 18 nM
21 | CCc1ccc(Cl)cc1Nc1nc(=O)c(OC)cn1Cc1ccccc1 [Compound I-0175] | – | 10 to 100 | –
22 | COc1ccc(Nc2nc(=O)c(CCO)cn2Cc2cc(F)c(F)c(F)c2)c(C)c1 [Compound I-1104] | 10 to 100 | – | –
23 | Cc1cc2[nH]ccc2cc1Nc1nc(=O)c(F)cn1Cc1ccc(F)c(F)c1 [Compound I-1043] | < 10 | – | –
24 | COc1cn(Cc2ccccc2)c(Nc2cc(-c3cscn3)ccc2C)nc1=O [Compound I-0750] | 10 to 100 | – | –

Row | Compound | IC50 [2] [nM] | IC50 [3] [nM] | further results
25 | COc1c(C)ccc(Nc2nc(=O)c(OC)cn2Cc2ccccc2)c1C [Compound I-0410] | – | < 10 | –
26 | COc1ccc(Nc2cc(=O)c(OC)cn2Cc2ccccc2)c(C)c1 [Compound I-0959] | 500 to 1000 | – | –
27 | Cc1ccccc1Cn1cc(O)c(=O)nc1Nc1cccc(C(F)(F)F)c1Cl [Compound I-0015] | – | 500 to 1000 | –
28 | COc1ccc(Cl)c(Nc2nc(=O)c(OC)cn2Cc2ccc(F)c(Cl)c2)c1 [Compound I-0544] | – | 10 to 100 | –
29 | COc1cn(Cc2ccccc2)c(Nc2cc(Cl)cc(Cl)c2Cl)nc1=O [Compound I-0145] | – | 10 to 100 | –
30 | CCOc1cc(C)c(Nc2nc(=O)c(F)cn2Cc2cc(F)c(F)c(F)c2)cc1C [Compound I-1201] | < 10 | – | –
31 | COc1cn(Cc2ccccc2)c(Nc2cc(N3CCCC3)ccc2C)nc1=O [Compound I-0883] | 10 to 100 | – | –
32 | COc1cn(Cc2ccccc2)c(N[C@@H]2CCCc3ccccc32)nc1=O [Compound I-0173] | – | 100 to 500 | –
33 | COc1cc(C)c(Nc2nc(=O)c(OC)cn2Cc2ccc(F)c(F)c2)cc1C [Compound I-0283] | – | < 10 | –
34 | COc1cn(Cc2cc(F)cc(F)c2)c(Nc2cc3c(cc2C)OCC3)nc1=O [Compound I-0865] | – | – | IC50 [1]: 8 nM
35 | COc1cn(Cc2cc(F)c(F)c(F)c2)c(Nc2cc(-n3cccc3)ccc2C)nc1=O [Compound I-0894] | < 10 | – | –
36 | COc1cn(Cc2ccccc2)c(Nc2cc(Br)ccc2C)nc1=O [Compound I-0386] | – | 10 to 100 | –
37 | COc1cn(Cc2cc(F)c(F)c(F)c2)c(Nc2cc3sc(C(F)F)nc3cc2C)nc1=O [Compound I-0934] | 10 to 100 | – | –
38 | COc1cn(Cc2ccc(F)c(Cl)c2)c(Nc2cc(N3CCCS3(=O)=O)ccc2C)nc1=O [Compound I-0232] | – | < 10 | –
39 | COc1cc(Nc2nc(=O)c(OC)cn2Cc2cccc(Cl)c2)c(C)cc1Cl [Compound I-0534] | – | < 10 | –
40 | COc1cn(Cc2ccccc2)c(Nc2cc(C)c(OC(F)F)cc2C)cc1=O [Compound I-0951] | 100 to 500 | – | –
41 | Cc1nc2[nH]ccc2cc1Nc1nc(=O)c(F)cn1Cc1ccc(F)c(Cl)c1 [Compound I-1091] | 10 to 100 | – | –
42 | COc1cn(Cc2ccc(F)c(Cl)c2)c(Nc2cc(N3CCCC3=O)ccc2C)nc1=O [Compound I-0399] | – | < 10 | –
43 | COc1cn(Cc2ccc(F)c(F)c2)c(Nc2cc(C)c(OC(F)F)cc2C)nc1=O [Compound I-0302] | – | < 10 | –
44 | COc1cn(Cc2ccccc2)c(Nc2ccc(OC(F)F)cc2C)nc1=O [Compound I-0364] | – | 100 to 500 | –
45 | COc1cn(Cc2ccc(F)c(Cl)c2)c(Nc2cc(-c3ccnn3C)ccc2C)nc1=O [Compound I-0733] | 10 to 100 | – | –
46 | COc1cn(Cc2ccccc2)c(Nc2cccc3[nH]c(-c4ccccc4)cc23)nc1=O [Compound I-0527] | – | 500 to 1000 | –
47 | COc1cn(Cc2ccccc2)c(Nc2cccc(Cl)c2Cl)nc1=O [Compound I-0096] | – | 10 to 100 | –
48 | COc1cn(Cc2ccc(F)c(Cl)c2)c(Nc2ccc(OC(C)C)cc2C)nc1=O [Compound I-0532] | – | 10 to 100 | –

Row | Compound | IC50 [2] [nM] | IC50 [3] [nM] | further results
49 | COc1cc(C)c(Nc2nc(=O)c(F)cn2Cc2ccc(F)c(Cl)c2)cc1OC [Compound I-0309] | – | < 10 | –
50 | COc1cn(Cc2ccc(F)c(Cl)c2)c(Nc2cc(-c3cccn(C)c3=O)ccc2C)nc1=O [Compound I-0588] | < 10 | – | –
51 | COc1cn(Cc2ccccc2)c(Nc2cc(CO)ccc2C)nc1=O [Compound I-0180] | – | 10 to 100 | –
52 | COc1cn(Cc2cc(F)cc(Cl)c2)c(Nc2cc(C)c(F)cc2C)nc1=O [Compound I-0508] | – | 10 to 100 | –
53 | COc1cn(Cc2ccccc2)c(Nc2cc3nc(C)sc3cc2C)nc1=O [Compound I-0744] | – | – | IC50 [1]: 180 nM
54 | Cc1cc(Nc2nc(=O)c(F)cn2Cc2cc(F)c(F)c(F)c2)c(Cl)cc1F [Compound I-1225] | < 10 | – | –
55 | O=c1nc(Nc2cccc3c(=O)[nH]ccc23)n(Cc2cc(F)cc(F)c2)cc1F [Compound I-0703] | – | – | IC50 [1]: 16 nM
56 | COc1cn(Cc2ccc(F)c(Cl)c2)c(Nc2cc(-c3ccc(C)o3)ccc2C)nc1=O [Compound I-0659] | 10 to 100 | – | –
57 | COc1cn(Cc2cc(F)c(F)c(F)c2)c(Nc2cc(OC(F)(F)F)ccc2C)nc1=O [Compound I-0869] | 10 to 100 | – | –
58 | Cc1c(Cl)cccc1NC(=O)Cc1cn(Cc2ccccc2)c(Nc2cccc(Cl)c2C)nc1=O [Compound I-0238] | – | 100 to 500 | –
59 | COc1cn(Cc2ccc(F)c(Cl)c2)c(Nc2ccc3c(c2C)OC(F)(F)C(F)(F)O3)nc1=O [Compound I-0824] | 10 to 100 | – | –
60 | COc1cn(Cc2ccc(F)c(F)c2)c(Nc2cc(-c3ccnn3C)ccc2C)nc1=O [Compound I-0783] | 10 to 100 | – | –
61 | COc1cn(Cc2cccc(Cl)c2)c(Nc2cccc(C)c2C)nc1=O [Compound I-0312] | – | 10 to 100 | –
62 | CCc1cc(OC)ccc1Nc1nc(=O)c(OC)cn1Cc1cccc(Cl)c1 [Compound I-0263] | – | < 10 | –
63 | CCc1cc(OC)ccc1Nc1nc(=O)c(F)cn1Cc1cc(F)cc(F)c1 [Compound I-1214] | < 10 | – | –
64 | COc1cn(Cc2ccc(F)c(Cl)c2)c(Nc2cc(S(C)(=O)=O)ccc2C)nc1=O [Compound I-0547] | – | 10 to 100 | –
65 | COc1cc(C)c(Nc2nc(=O)c(OC)cn2Cc2cc(F)c(F)c(F)c2)cc1C [Compound I-0632] | < 10 | – | –
66 | COc1cn(Cc2ccc(F)c(Cl)c2)c(Nc2cccc(Cl)c2C)nc1=O [Compound I-0166] | – | < 10 | –
67 | COc1ccc(Nc2nc(=O)c(F)cn2Cc2ccc(F)c(Cl)c2)c(C)c1 [Compound I-0840] | < 10 | – | –
68 | COc1ccc(Nc2nc(=O)cc(C)n2Cc2cc(F)c(F)c(F)c2)c(C)c1 [Compound I-1167] | < 10 | – | –
69 | COc1cn(Cc2ccsc2)c(Nc2cc(C)c(C)cc2C)nc1=O [Compound I-0738] | – | – | IC50 [1]: 3 nM
70 | Cc1cc(C)c(Nc2nc(=O)c(C(=O)O)cn2Cc2ccccc2)cc1C [Compound I-0205] | – | – | IC50 [1]: 91 nM
71 | COc1cn(Cc2cc(F)c(F)c(F)c2)c(Nc2c(C)ccc(C)c2F)nc1=O [Compound I-0929] | < 10 | – | –
